The values that follow come from paper PMC4071569, “Investigation of Indolglyoxamide and Indolacetamide Analogues of Polyamines as Antimalarial and Antitrypanosomal Agents” (Marine Drugs, 2014).

Series [1] deals with Trypanosoma brucei rhodesiense, STIB 900 strain, trypomastigotes stage. On the set-up: method as in PMID 21348447. To be noted: data taken from ref 24, read-out: IC50 T. b. rhod.; cited from earlier work.
The subject of series [2] is Plasmodium falciparum, K1 strain, IEF stage. To be noted: cited from earlier work; for Pf SI (selectivity index for P. falciparum = IC50 L6/IC50 Pf): K1 strain vs L6.
The test system of series [3] is L6 rat skeletal myoblast cell line. On the set-up: method as in PMID 21348447. The note with it: data taken from ref 24; cited from earlier work.
Series [4] concerns Trypanosoma brucei rhodesiense, STIB 900 strain, trypomastigotes stage. Nature of the series: In vitro anti-trypanosomal activity (growth inhibition). To be noted: STIB 900 strain, trypomastigotes, average of two independent assays, read-out: IC50 T. b. rhod. It counts as cell-based. As for the experimental part:
(§1) The in vitro activities against the protozoan parasites T.b. rhodesiense, and P. falciparum and cytotoxicity assessment against L6 cells were determined as reported elsewhere.

Series [5] deals with Plasmodium falciparum, NF54 strain, IEF stage. Nature of the series: In vitro antimalarial activity, NF54 drug sensitive strain. It counts as cell-based. To be noted: for IC50: NF54 strain, IEF stage, average of two independent assays, read-out: IC50 P. falc.; for Pf SI (selectivity index for P. falciparum = IC50 L6/IC50 Pf): NF54 strain vs L6. Here is the method:
as §1

Series [6] relates to L6 rat skeletal myoblast cell line. Nature of the series: Cytotoxicity towards L6 cells. It is filed as cell-based. To be noted: L6 rat skeletal myoblast cell line; average of two independent assays; read-out: IC50 L6. As for the experimental part: as §1
In series [7] the test system is GFP-transfected P. berghei strain ANKA. Nature of the series: In vivo anti-malarial efficacy in P. berghei infected mice. On the set-up: species or system Plasmodium berghei. The note with it: repeated ip dose of 50 (mg/kg)/day for four days. Here is the method:
Analogue 20 was selected for in vivo evaluation in Plasmodium berghei infected mice. […] No increase in mean survival time was observed.
In vivo anti-malarial activity was assessed as previously described. Groups of three female NMRI mice (20–22 g) were intravenously infected with 2 × 10^7 parasitized erythrocytes on day 0 with GFP-transfected P. berghei strain ANKA [32]. Compounds were formulated in 100% DMSO, diluted 10-fold in distilled water and administered intraperitoneally in a volume of 10 mL·kg^−1 on four consecutive days (4, 24, 48 and 72 h post infection). Parasitemia was determined on day 4 post infection (24 h after last treatment) by FACS analysis. Activity was calculated as the difference between the mean per cent parasitaemia for the control (n = 5 mice) and treated groups expressed as a per cent relative to the control group. The survival of the animals was usually monitored up to 30 days: a compound was considered curative if the animal survived to day 30 after infection with no detectable parasites. In vivo efficacy studies in mice were conducted according to the rules and regulations for the protection of animal rights (“Tierschutzverordnung”) of the Swiss “Bundesamt für Veterinärwesen”. They were approved by the veterinary office of Canton Basel-Stadt, Switzerland.

Where [8] appears, read: K1 strain, IEF stage, data taken from ref 24, read-out: IC50 P. falc.

Where two headings read alike, the source gives them in different places.

What is called IC50 is the concentration needed to halve the response being measured. `NCCCCNCCCNC(=O)C(=O)c1c[nH]c2ccccc12` [Compound 2, didemnidine A]: the IC50 in series [1] is 59 µM; in series [2] (setting [8]) it was 41 µM; in series [3], 24 µM. In addition, in series [2] (data taken from ref 24), the “Pf SI (selectivity index for P. falciparum = IC50 L6/IC50 Pf)” value was 0.59.
`NCCCCNCCCNC(=O)C(=O)c1c[nH]c2cc(Br)ccc12` [Compound 3, didemnidine B]: the IC50 in series [1] is 44 µM; in series [2] (setting [8]), 15 µM; in series [3] it was 25 µM. For the same molecule, the “Pf SI (selectivity index for P. falciparum = IC50 L6/IC50 Pf)” value in series [2] (data taken from ref 24) was 1.7.
`CC(C)(C)OC(=O)NCCCCNCCCNC(=O)C(=O)c1c[nH]c2cc(Br)ccc12` [Compound 4]: the figures for the IC50 in series [1], in series [2] (setting [8]) and in series [3] were 9.9 µM, 8.4 µM and 25 µM, respectively. Besides, the “Pf SI (selectivity index for P. falciparum = IC50 L6/IC50 Pf)” value in series [2] (data taken from ref 24) is given as 3.0.
By melting point is commonly meant the temperature, or range, at which the solid turns liquid. Take `COc1ccc2c(C(=O)C(=O)NCCCN(CCCCCCCCN(CCCNC(=O)C(=O)c3c[nH]c4cc(OC)ccc34)C(=O)OC(C)(C)C)C(=O)OC(C)(C)C)c[nH]c2c1` [Compound 19, Di-tert-butyl Octane-1,8-diylbis((3-(2-(6-methoxy-1H-indol-3-yl)-2-oxoacetamido)propyl)carbamate)]: the melting point is 92 °C. Also, the IC50 in series [4] (Trypanosoma brucei) amounted to 6100 nM. Further, the half-maximal inhibitory concentration (IC50) in series [5] (Plasmodium falciparum) came out at 140 nM. The IC50 in series [6] is not below 120 µM.
For the molecule `COc1cccc2c(C(=O)C(=O)NCCCN(CCCCCCCCN(CCCNC(=O)C(=O)c3c[nH]c4c(OC)cccc34)C(=O)OC(C)(C)C)C(=O)OC(C)(C)C)c[nH]c12` [Compound 20, Di-tert-butyl Octane-1,8-diylbis((3-(2-(7-methoxy-1H-indol-3-yl)-2-oxoacetamido)propyl)carbamate)], the IC50 was 61000 nM in series [4] (Trypanosoma brucei), 92 nM in series [5] (Plasmodium falciparum) and not below 120 µM in series [6]. Besides, the “Pf SI (selectivity index for P. falciparum = IC50 L6/IC50 Pf)” value in series [5] is on record as not below 1300. In series [7], the “increase in mean survival time” value is “No increase”. In addition, in series [7] (parasitemia on day 4 post infection), the reduction in parasitaemia stood at 20.9%.
As for `COc1cccc2c(C(=O)C(=O)NCCCN(CCCCCCCCCCCCN(CCCNC(=O)C(=O)c3c[nH]c4c(OC)cccc34)C(=O)OC(C)(C)C)C(=O)OC(C)(C)C)c[nH]c12` [Compound 24, Di-tert-butyl Dodecane-1,12-diylbis((3-(2-(7-methoxy-1H-indol-3-yl)-2-oxoacetamido)propyl)carbamate)], the results for the IC50 in series [4] (Trypanosoma brucei), in series [5] (Plasmodium falciparum) and in series [6] were 63000 nM, 1700 nM and not below 110 µM, respectively. Besides, the “Pf SI (selectivity index for P. falciparum = IC50 L6/IC50 Pf)” value in series [5] is given as not below 65.
Turning to `O=C(NCCCNCCCCCCCCNCCCNC(=O)C(=O)c1c[nH]c2ccccc12)C(=O)c1c[nH]c2ccccc12.O=C(O)C(F)(F)F.O=C(O)C(F)(F)F` [Compound 25, N^1,N^8-Bis(3-(2-(1H-indol-3-yl)-2-oxoacetamido)propyl)octane-1,8-diaminium 2,2,2-trifluoroacetate], the results for the IC50 in series [4] (Trypanosoma brucei), in series [5] (Plasmodium falciparum) and in series [6] were 2500 nM, 110 nM and 19 µM, respectively. Further, the “Pf SI (selectivity index for P. falciparum = IC50 L6/IC50 Pf)” value in series [5] is listed as 170.
As to `COc1ccc2[nH]cc(C(=O)C(=O)NCCCNCCCCCCCCNCCCNC(=O)C(=O)c3c[nH]c4ccc(OC)cc34)c2c1.O=C(O)C(F)(F)F.O=C(O)C(F)(F)F` [Compound 26, N^1,N^8-Bis(3-(2-(5-methoxy-1H-indol-3-yl)-2-oxoacetamido)propyl)octane-1,8-diaminium 2,2,2-trifluoroacetate], the IC50 amounted to 780 nM in series [4] (Trypanosoma brucei), 130 nM in series [5] (Plasmodium falciparum) and 13 µM in series [6]. The “Pf SI (selectivity index for P. falciparum = IC50 L6/IC50 Pf)” value in series [5] was 100.
For `COc1ccc2c(C(=O)C(=O)NCCCNCCCCCCCCNCCCNC(=O)C(=O)c3c[nH]c4cc(OC)ccc34)c[nH]c2c1.O=C(O)C(F)(F)F.O=C(O)C(F)(F)F` [Compound 27, N^1,N^8-Bis(3-(2-(6-methoxy-1H-indol-3-yl)-2-oxoacetamido)propyl)octane-1,8-diaminium 2,2,2-trifluoroacetate] the same measures were 2200 nM, 170 nM, 21 µM and 120.
On the same counts, the results for `COc1cccc2c(C(=O)C(=O)NCCCNCCCCCCCCNCCCNC(=O)C(=O)c3c[nH]c4c(OC)cccc34)c[nH]c12.O=C(O)C(F)(F)F.O=C(O)C(F)(F)F` [Compound 28, N^1,N^8-Bis(3-(2-(7-methoxy-1H-indol-3-yl)-2-oxoacetamido)propyl)octane-1,8-diaminium 2,2,2-trifluoroacetate] are 2100 nM, 120 nM, 6.6 µM and 55.
On to `O=C(NCCCNCCCCCCCCCCCCNCCCNC(=O)C(=O)c1c[nH]c2ccccc12)C(=O)c1c[nH]c2ccccc12.O=C(O)C(F)(F)F.O=C(O)C(F)(F)F` [Compound 29, N^1,N^12-Bis(3-(2-(1H-indol-3-yl)-2-oxoacetamido)propyl)dodecane-1,12-diaminium 2,2,2-trifluoroacetate], for which the IC50 stood at 270 nM in series [4] (Trypanosoma brucei), 33 nM in series [5] (Plasmodium falciparum) and 2.3 µM in series [6]. Also, the “Pf SI (selectivity index for P. falciparum = IC50 L6/IC50 Pf)” value in series [5] is listed as 70.
Regarding `COc1ccc2[nH]cc(C(=O)C(=O)NCCCNCCCCCCCCCCCCNCCCNC(=O)C(=O)c3c[nH]c4ccc(OC)cc34)c2c1.O=C(O)C(F)(F)F.O=C(O)C(F)(F)F` [Compound 30, N^1,N^12-Bis(3-(2-(5-methoxy-1H-indol-3-yl)-2-oxoacetamido)propyl)dodecane-1,12-diaminium 2,2,2-trifluoroacetate], the IC50 in series [4] (Trypanosoma brucei) stood at 270 nM; in series [5] (Plasmodium falciparum), 200 nM; in series [6], 17 µM. The “Pf SI (selectivity index for P. falciparum = IC50 L6/IC50 Pf)” value in series [5] amounted to 85.
On the same counts, the results for `COc1ccc2c(C(=O)C(=O)NCCCNCCCCCCCCCCCCNCCCNC(=O)C(=O)c3c[nH]c4cc(OC)ccc34)c[nH]c2c1.O=C(O)C(F)(F)F.O=C(O)C(F)(F)F` [Compound 31, N^1,N^12-Bis(3-(2-(6-methoxy-1H-indol-3-yl)-2-oxoacetamido)propyl)dodecane-1,12-diaminium 2,2,2-trifluoroacetate] are 180 nM, 240 nM, 6 µM and 25.
On the same counts, the results for `COc1cccc2c(C(=O)C(=O)NCCCNCCCCCCCCCCCCNCCCNC(=O)C(=O)c3c[nH]c4c(OC)cccc34)c[nH]c12.O=C(O)C(F)(F)F.O=C(O)C(F)(F)F` [Compound 32, N^1,N^12-Bis(3-(2-(7-methoxy-1H-indol-3-yl)-2-oxoacetamido)propyl)dodecane-1,12-diaminium 2,2,2-trifluoroacetate] are 260 nM, 10 nM, 2.1 µM and 210.
For the molecule `CC(C)(C)OC(=O)N(CCCCN(CCCNC(=O)Cc1c[nH]c2ccccc12)C(=O)OC(C)(C)C)CCCNC(=O)Cc1c[nH]c2ccccc12` [Compound 33, Di-tert-butyl Butane-1,4-diylbis((3-(2-(1H-indol-3-yl)acetamido)propyl)carbamate)], the results for the IC50 in series [4] (Trypanosoma brucei), in series [5] (Plasmodium falciparum) and in series [6] were 7100 nM, 160 nM and 19 µM, respectively. In series [5], the “Pf SI (selectivity index for P. falciparum = IC50 L6/IC50 Pf)” value is recorded as 120.
On the same counts, the results for `O=C(Cc1c[nH]c2ccccc12)NCCCNCCCCNCCCNC(=O)Cc1c[nH]c2ccccc12.O=C(O)C(F)(F)F.O=C(O)C(F)(F)F` [Compound 36, N^1,N^4-Bis(3-(2-(1H-indol-3-yl)acetamido)propyl)butane-1,4-diaminium 2,2,2-trifluoroacetate] are 75000 nM, 180 nM, 74 µM and 410.
As for `COc1cc(CC(=O)NCCCNCCCCNCCCNC(=O)Cc2ccc(O)c(OC)c2)ccc1O` [orthidine F, reference compound], the IC50 in series [2] (K1 dual drug-resistant strain, read-out: IC50 antimalarial potency (P. falciparum)) is 0.89 µM.
For “N^1,N^4-Bis(3-(2-(7-methoxy-1H-indol-3-yl)acetamido)propyl)butane-1,4-diaminium 2,2,2-trifluoroacetate [Compound 16]”, the results for the IC50 in series [4], in series [5] and in series [6] were 45000 nM, 1300 nM and 62 µM, respectively. For the same molecule, in series [5], the “Pf SI (selectivity index for P. falciparum = IC50 L6/IC50 Pf)” value turned out to be 48.
